Data taken from the supplement of paper PMC10307832.

Tests used:
Test in all cases: relative viability (nuclei count vs DMSO), 5 days (fraction); higher = more cells survive
IU1-47 + Luminespib = compound: CC1=CC(=C(N1C2=CC=C(C=C2)Cl)C)C(=O)CN3CCCCC3 [IU1-47] + CCNC(=O)c1noc(-c2cc(C(C)C)c(O)cc2O)c1-c1ccc(CN2CCOCC2)cc1 [Luminespib] (partner 0.01 µM)
Method in brief: (§1)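 Relative viability was taken as the ratio of nuclei in treated wells to nuclei in vehicle wells. Lung cancer cell lines in 1536-well plates received compounds by pin tool one day after seeding, either one drug alone or a fixed anchor-drug dose plus five library-drug doses (not always all listed) in √10 steps. Nuclei were counted on 4× images after 5 days of treatment, and values are medians of duplicate plates.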

FG-4592 + Palbociclib = compound: Cc1nc(C(=O)NCC(=O)O)c(O)c2ccc(Oc3ccccc3)cc12 [FG-4592] + CC(=O)c1c(C)c2cnc(Nc3ccc(N4CCNCC4)cn3)nc2n(C2CCCC2)c1=O [Palbociclib] (partner 0.5 µM)
Method in brief: as §1

FG-4592 + OSI-027 = compound: Cc1nc(C(=O)NCC(=O)O)c(O)c2ccc(Oc3ccccc3)cc12 [FG-4592] + COc1cccc2cc(-c3nc([C@H]4CC[C@H](C(=O)O)CC4)n4ncnc(N)c34)[nH]c12 [OSI-027] (partner 0.5 µM)
Method in brief: as §1

FG-4592 + Vorinostat = compound: Cc1nc(C(=O)NCC(=O)O)c(O)c2ccc(Oc3ccccc3)cc12 [FG-4592] + O=C(CCCCCCC(=O)Nc1ccccc1)NO [Vorinostat] (partner 1 µM)
Method in brief: as §1

**Q.** Which results are given for UMC-11?
**A.** relative viability (IU1-47 + Luminespib; first compound 0.08 µM): 1.08; relative viability (IU1-47 + Luminespib; first compound 0.253 µM): 0.974; relative viability (IU1-47 + Luminespib; first compound 0.8 µM): 1.09; relative viability (IU1-47 + Luminespib; first compound 2.53 µM): 1.06; relative viability (IU1-47 + Luminespib; first compound 8 µM): 0.938; relative viability (FG-4592 + Palbociclib; first compound 0.08 µM): 0.306; relative viability (FG-4592 + Palbociclib; first compound 0.253 µM): 0.309; relative viability (FG-4592 + Palbociclib; first compound 0.8 µM): 0.32; relative viability (FG-4592 + Palbociclib; first compound 2.53 µM): 0.331; relative viability (FG-4592 + Palbociclib; first compound 8 µM): 0.285; relative viability (FG-4592 + OSI-027; first compound 0.08 µM): 0.466; relative viability (FG-4592 + OSI-027; first compound 0.253 µM): 0.529; relative viability (FG-4592 + OSI-027; first compound 0.8 µM): 0.498; relative viability (FG-4592 + OSI-027; first compound 2.53 µM): 0.461; relative viability (FG-4592 + OSI-027; first compound 8 µM): 0.441; relative viability (FG-4592 + Vorinostat; first compound 0.08 µM): 0.363; relative viability (FG-4592 + Vorinostat; first compound 0.253 µM): 0.333; relative viability (FG-4592 + Vorinostat; first compound 0.8 µM): 0.361; relative viability (FG-4592 + Vorinostat; first compound 2.53 µM): 0.511; relative viability (FG-4592 + Vorinostat; first compound 8 µM): 0.332
